# According to patent publication US10662204B2 (PFIZER INC., priority 2018, dated 2020):
# How the values were obtained:
# [1] = target: T1, GDP-loaded KRAS (1-169) G12C, C51S, C80L, C118S (Homo sapiens, UniProt P01116, C118S/C51S/C80L/G12C); test: Mass Spectrometry Reactivity Assay (MSRA): covalent adduct of compound and KRAS G12C, Percent Modification; format: binding; conditions: for MSRA (% modification) 10 μM 0.25 hr / MSRA (% modification) 10 μM 0.50 hr: 10 μM compound
# T1 construct: GDP-loaded KRAS (1-169) G12C, C51S, C80L, C118S
# Experimental: Mass Spectrometry Reactivity Assay (MSRA)
# Compounds presented in the present invention covalently bind to KRAS G12C using MSRA to detect a covalent adduct of the exemplary compound and KRAS G12C.
# GDP-loaded KRAS (1-169) G12C, C51S, C80L, C118S were diluted in the protein assay buffer 25 mM Hepes pH7.5, 200 mM NaCl, 5% glycerol to concentration of 5 μM and 20 μl of protein was transferred into 96-well plate. Initial compound stocks were generated at concentrations 100-fold higher that their desired assay concentrations. See K-Ras(G12C) inhibitors allosterically control GTP affinity and effector interactions; Ostrem J M, Peters U, Sos M L, Wells J A, Shokat K M; Nature. 2013, Nov. 28; 503(7477):548-51.
# Exemplary compounds dissolved in DMSO were diluted 100-fold into solution containing 20 μl of 5 μM KRAS protein in the 96-well plate to initiate the reaction. Mosquito (TPP Lab tech) liquid handling robot was used to add compounds to protein solution. Typical final concentration of the compounds was 5 μM or 10 μM. The plates were placed on a shaker for 1 min at RT, sealed and incubated at room temperature for specified time period. 5 μl of reaction mix was added to 10 μl of 0.2% formic acid stop solution and mixed well. Typical end points were 1, 15, 30, and 60 min.
# Data were collected using Waters Acquity H-class UPLC system/Xevo G2-XS TOF mass spectrometer. The protein was injected in their liquid phase onto a Bruker Microtrap protein column TR1/15109/03. The following buffers were used to set LC gradient: Buffer A: 0.2% formic acid H2O; B: 0.2% formic acid CAN. The protein was eluted from the column using the following LC Gradient: 0-0.4 min, 10% B to 30% B; 0.4 min-2.4 min, to 90% B, 2.5 min, 10% B, 3 min, 10% B. Initial data analysis was performed using MaxEnt software right after data acquisition.
# The standard auto processing function was used to define percentage of unmodified and modified KRAS protein using MexEnt software right after data acquisition. The highest peak was defined as 100% while smaller peak as assigned the number defined by autoprocessing function. The percent of modification corresponding to modified with exemplary compound and unmodified KRAS GDP-loaded KRAS (1-169) G12C, C51S, C80L, C118S were exported to Xcel data analysis software.
# The percent of modified protein at the defined concentration of exemplary compound was calculated using the following formula: % mod=Num of modified peak/Sum of modified+unmodified. The resultant value defined as Percent Modification (PM) and an increase in PM reflects that the specific compound is better than other compounds at specified compound concentration at a given time point.
# [2] = target: KRAS G12C (Homo sapiens, UniProt P01116, G12C); test: Cell Activity Assay: accumulation of GDP-bound KRAS G12C in MIAPaCa-2 cells (Raf-1 RBD capture, MSD readout); format: cell-based; design: endogenous in cells; host or cells: MIAPaCa-2; conditions: 6 hours, assay limit is 30.00
# Experimental: Compounds presented in the present invention lead to the accumulation of the GDP bound Ras upon treatment of human cancer cell line.
# The accumulation of the GDP-bound KRAS G12C in cellular environment was measured based on the principle that KRAS G12C only binds to its downstream kinase; Raf-1 (MAP Kinase Kinase Kinase), when in its active-GTP bound state. In this state, Ras binded to a domain of Raf-1 kinase referred to as the Ras Binding Domain (RBD).
# MIAPaCa-2 cells were grown in RPMI 1640 medium (Gibco 11875) supplemented with 10% fetal bovine serum and 1% penicillin/streptomycin. Cells were seeded in 96-well tissue culture plates at a density of 30,000 cells/well and allowed to attach for 16-24 hours. Test compounds were prepared as a 10 mM stock in DMSO and serially diluted in 100% DMSO using a 3-fold dilution scheme. An intermediate 5× concentrated plate in complete growth medium was made and 25 μl/well was added to the 100 μl of cells for a final concentration of 0.3% DMSO. Each concentration of exemplary compound was tested in duplicate. The negative control wells were cells with control inhibitor at 10 μM, and the positive control wells were cells without drugs, DMSO only. Plates were incubated for 6 hours at 37° C., 5% CO2. Following treatment, cells were washed 3× with ice-cold PBS and 115 μl/well ice-cold 1× Assay/Lysis. Buffer with protease inhibitors was added (25 mM HEPES, pH 7.5, 150 mM NaCl, 1% NP-40, 10 mM MgCl2, 1 mM EDTA, 2% Glycerol). Following lysis samples were frozen at −80° C.
# Raf-1 RBD (LJIC-1988A1) was diluted to 100 ng/well in PBS and 5 μl/well was spot coated onto MSD high bind SECTOR plates (L15XB). Plates were incubated at room temperature for 1 hour on an orbital shaker. Plates were washed with PBS/0.05% Tween-20 and 50 μl/well of thawed lysate samples were added, followed by 50 μl of 1% MSD Blocker A in PBS/0.05 Tween-20 (R93BA). Plates were incubated for 1 hour on an orbital shaker and washed with PBS/0.05% Tween-20. 25 μl/well of Anti-pan-Ras Antibody (Cell Biolabs 244003) diluted 1:3000 was added in 1% MSD Blocker A solution and plates were incubated for 1 hour on an orbital shaker and washed with PBS/0.05% Tween-20. SULFO-TAG goat anti-mouse secondary antibody (MSD R32AC) was diluted 1:500 in MSD Blocker A solution and added at 25 μL/well. Plates were incubated for 1 hour on an orbital shaker and washed with PBS/0.05% Tween-20. 150 μl/well of Read Buffer T (MSD R92TC) diluted 1:3 in H2O was added and plates were read on a Meso Scale Discovery Sector Imager S600.
# KRAS signal was normalized to maximum inhibition and DMSO control values, and IC50 values were generated using a 4 parameter fit of the dose response curve. The decrease in IC50 reflects that the exemplary compound lead to a higher level of accumulation of GDP-bound KRAS G12C than another exemplary compounds at specific timepoint of treatment of cancer cell line.
smiles,measurement,setting,value
"C=CC(=O)N1CCN(c2nc(OC[C@@H]3C[C@H](F)CN3C)nc3c(Oc4c(Cl)c(F)cc5[nH]ncc45)nccc23)CC1 [Example 11H, 1-[4-(8-[(5-chloro-6-fluoro-1H-indazol-4-yl)oxy]-2-{[(2S,4S)-4-fluoro-1-methylpyrrolidin-2-yl]methoxy}pyrido[3,4-d]pyrimidin-4-yl)piperazin-1-yl]prop-2-en-1-one]",MSRA (% modification) 10 μM 0.25 hr,[1],80%
same,IC50,[2],0.237 µM
"C=CC(=O)N1CCN(c2nc(OCC3CCN(C(C)=O)C3)nc3c(Oc4c(Cl)c(F)cc5[nH]ncc45)nccc23)CC1 (stereo not shown) [Example 05J, 1-(4-{2-[(1-acetylpyrrolidin-3-yl)methoxy]-8-[(5-chloro-6-fluoro-1H-indazol-4-yl)oxy]pyrido[3,4-d]pyrimidin-4-yl}piperazin-1-yl)prop-2-en-1-one]",MSRA (% modification) 5.0 μM 0.25 hr,[1]; 5.0 μM compound,81%
same,IC50,[2],1.07 µM
"C=CC(=O)N1CCN(c2ncnc3c(Oc4c(Cl)ccc5[nH]ncc45)cccc23)CC1 [Example 08C, 1-(4-{8-[(5-chloro-1H-indazol-4-yl)oxy]quinazolin-4-yl}piperazin-1-yl)prop-2-en-1-one]",MSRA (% modification) 10 μM 0.50 hr,[1],29%
same,IC50,[2],2.98 µM
"C=CC(=O)N1CCN(c2nc(N3CC4(C3)C(=O)NCN4C)nc3c(Oc4c(C)ccc5[nH]ncc45)cccc23)CC1 [Example 18F, 2-{4-(4-acryloylpiperazin-1-yl)-8-[(5-methyl-1H-indazol-4-yl)oxy]quinazolin-2-yl}-5-methyl-2,5,7-triazaspiro[3.4]octan-8-one]",MSRA (% modification) 10 μM 0.50 hr,[1],23%
same,IC50,[2],29.3 µM
"C=CC(=O)N1CCN(c2nc(OC[C@@]3(F)CCN(C)C3)nc3c(Oc4c(Cl)c(F)cc5[nH]ncc45)nccc23)CC1 [Example 15H, 1-[4-(8-[(5-chloro-6-fluoro-1H-indazol-4-yl)oxy]-2-{[(3R)-3-fluoro-1-methylpyrrolidin-3-yl]methoxy}pyrido[3,4-d]pyrimidin-4-yl)piperazin-1-yl]prop-2-en-1-one]",MSRA (% modification) 5.0 μM 0.25 hr,[1]; 5.0 μM compound,25%
same,MSRA (% modification) 10 μM 0.25 hr,[1],54%
same,IC50,[2],0.461 µM
"C=CC(=O)N1CCN(c2nc(OCCNC(C)=O)nc3c(Oc4c(C)ccc5[nH]ncc45)cccc23)CC1 [Example 17F, N-[2-({4-(4-acryloylpiperazin-1-yl)-8-[(5-methyl-1H-indazol-4-yl)oxy]quinazolin-2-yl}oxy)ethyl]acetamide]",MSRA (% modification) 10 μM 0.25 hr,[1],36%
same,MSRA (% modification) 10 μM 0.50 hr,[1],60%
same,IC50,[2],4.59 µM
"C=CC(=O)N1CCN(c2ncnc3c(Oc4c(C)ccc5[nH]ncc45)cccc23)C[C@H]1C [Example 03C, 1-[(2R)-2-methyl-4-{8-[(5-methyl-1H-indazol-4-yl)oxy]quinazolin-4-yl}piperazin-1-yl]prop-2-en-1-one]",MSRA (% modification) 10 μM 0.25 hr,[1],3%
same,MSRA (% modification) 10 μM 0.50 hr,[1],8%
same,IC50,[2],24.2 µM
"C=CC(=O)N1CCN(c2ncnc3c(Oc4c(C)ccc5[nH]ncc45)cccc23)CC1 [Example 01C, 1-(4-{8-[(5-methyl-1H-indazol-4-yl)oxy]quinazolin-4-yl}piperazin-1-yl)prop-2-en-1-one]",MSRA (% modification) 10 μM 0.50 hr,[1],18%
same,IC50,[2],5.92 µM
"C=CC(=O)N1CCN(c2nc(O[C@@H]3CN(C)C[C@H]3C(F)F)nc3c(Oc4c(Cl)c(F)cc5[nH]ncc45)nccc23)CC1 (single isomer, unassigned) [Example 58I]",MSRA (% modification) 5.0 μM 0.017 hr,"[1]; 5.0 μM compound, 0.017 hr",58%
same,IC50,[2],0.006 µM
"C=CC(=O)N1CCN(c2nc(N(C)CCC(=O)NC)nc3c(Oc4c(C)ccc5[nH]ncc45)cccc23)CC1 [Example 14F, N^3-{4-(4-acryloylpiperazin-1-yl)-8-[(5-methyl-1H-indazol-4-yl)oxy]quinazolin-2-yl}-N,N^3-dimethyl-β-alaninamide]",MSRA (% modification) 10 μM 0.50 hr,[1],12%
same,IC50,[2],29 µM
"C=CC(=O)N1CCN(c2nc(Oc3cccnc3OC)nc3c(Oc4c(Cl)c(F)cc5[nH]ncc45)nccc23)CC1 [Example 08I, 1-(4-{8-[(5-chloro-6-fluoro-1H-indazol-4-yl)oxy]-2-[(2-methoxy-pyridin-3-yl)oxy]pyrido [3,4-d]pyrimidin-4-yl}piperazin-1-yl)prop-2-en-1-one]",MSRA (% modification) 5.0 μM 0.25 hr,[1]; 5.0 μM compound,65%
same,IC50,[2],0.265 µM
"C=CC(=O)N1CCN(c2nc(N3CC(C)(C#N)C3)nc3c(Oc4c(Cl)c(F)cc5[nH]ncc45)nc(Cl)cc23)CC1 [Example 02G, 1-{4-(4-acryloylpiperazin-1-yl)-6-chloro-8-[(5-chloro-6-fluoro-1H-indazol-4-yl)oxy]pyrido[3,4-d]pyrimidin-2-yl}-3-methylazetidine-3-carbonitrile]",MSRA (% modification) 5.0 μM 0.25 hr,[1]; 5.0 μM compound,73%
same,MSRA (% modification) 10 μM 0.25 hr,[1],75%
same,IC50,[2],0.584 µM
"C=CC(=O)N1CCN(c2ncnc3c(Nc4c(C)ccc5[nH]ncc45)nccc23)CC1 [Example 05, 1-(4-{8-[(5-methyl-1H-indazol-4-yl)amino]pyrido[3,4-d]pyrimidin-4-yl}piperazin-1-yl)prop-2-en-1-one]",MSRA (% modification) 10 μM 0.50 hr,[1],5%
same,IC50,[2],29.3 µM
"C=CC(=O)N1CCN(c2ncnc3c(Oc4c(Cl)c(F)cc5[nH]ncc45)cccc23)CC1 [Example 18C, 1-(4-{8-[(5-chloro-6-fluoro-1H-indazol-4-yl)oxy]quinazolin-4-yl}piperazin-1-yl)prop-2-en-1-one]",MSRA (% modification) 5.0 μM 0.25 hr,[1]; 5.0 μM compound,36%
same,MSRA (% modification) 10 μM 0.50 hr,[1],50%
same,IC50,[2],1.1 µM
"C=CC(=O)N1CCN(c2nc(OCCN(C)C)nc3c(Oc4c(Cl)c(C)cc5[nH]ncc45)cccc23)CC1 [Example 15E, 1-(4-{8-[(5-chloro-6-methyl-1H-indazol-4-yl)oxy]-2-[2-(dimethylamino)ethoxy]quinazolin-4-yl}piperazin-1-yl)prop-2-en-1-one]",MSRA (% modification) 5.0 μM 0.25 hr,[1]; 5.0 μM compound,56%
same,MSRA (% modification) 10 μM 0.25 hr,[1],59%
same,MSRA (% modification) 10 μM 0.50 hr,[1],74%
same,IC50,[2],0.51 µM
